Test results as given in patent publication US11510920B2, “Compositions and methods for treating EZH2-mediated cancer” (Icahn School of Medicine at Mount Sinai, priority 2016, dated 2022).

How the values were obtained:
Format in all cases: cell-based
HCC1187 cells = assay: Proliferation assay (IncuCyte cell confluence), HCC1187; conditions: Homo sapiens, concentration for 50% of maximal inhibition of cell proliferation
Protocol: (§1) 1-3×10^3 cells were seeded in 96-well plates in duplicates and treated at the indicated compound concentrations. Cells were monitored using the IncuCyte® live cell imaging system (Essen BioScience™, Ann Arbor, Mich.) which was placed in a cell culture incubator operated at 37° C. and 5% CO2. Cell confluence was determined using calculations derived from phase-contrast images. The concentration for 50% of maximal inhibition of cell proliferation (GI50) values were determined by fitting to a standard four-parameter logistic using GraphPad Prism® v5. Graphs depicting the GI50s of select EZH2 degraders/disruptors described here for various cancer cell lines are shown in FIGS. 4-49.

MCF-7 cells = assay: Proliferation assay (IncuCyte cell confluence), MCF-7; conditions: Homo sapiens, MCF7, concentration for 50% of maximal inhibition of cell proliferation
Protocol: as §1

MDA-MB-468 cells = assay: Proliferation assay (IncuCyte cell confluence), MDA-MB-468; conditions: Homo sapiens, concentration for 50% of maximal inhibition of cell proliferation
Protocol: as §1

SMILES	GI50 (HCC1187 cells) [µM]	GI50 (MCF-7 cells) [µM]	GI50 (MDA-MB-468 cells) [µM]
CCCc1cc(C)[nH]c(=O)c1CNC(=O)c1cc(-c2ccc(N3CCN(C(=O)CC45CC6CC(CC(C6)C4)C5)CC3)nc2)cc2c1cnn2C(C)C [AM16-37A, 6-(6-(4-(2-((1s,3s)-adamantan-1-yl)acetyl)piperazin-1-yl)pyridin-3-yl)-1-isopropyl-N-((6-methyl-2-oxo-4-propyl-1,2-dihydropyridin-3-yl)methyl)-1H-indazole-4-carboxamide]	2.1	–	–
CCCc1cc(C)[nH]c(=O)c1CNC(=O)c1cc(-c2ccc(N3CCN(C(=O)CCC45CC6CC(CC(C6)C4)C5)CC3)nc2)cc2c1cnn2C(C)C [AM16-38A, 6-(6-(4-(3-((3r,5r,7r)-adamantan-1-yl)propanoyl)piperazin-1-yl)pyridin-3-yl)-1-isopropyl-N-((6-methyl-2-oxo-4-propyl-1,2-dihydropyridin-3-yl)methyl)-1H-indazole-4-carboxamide]	2	–	–
Cc1cc(C)c(CNC(=O)c2cc(-c3ccc(N4CCN(C(=O)CCC56CC7CC(CC(C7)C5)C6)CC4)nc3)cc3c2cnn3C(C)C)c(=O)[nH]1 [AM16-93A, 6-(6-(4-(3-((1r,3s)-adamantan-1-yl)propanoyl)piperazin-1-yl)pyridin-3-yl)-N-((4,6-dimethyl-2-oxo-1,2-dihydropyridin-3-yl)methyl)-1-isopropyl-1H-indazole-4-carboxamide]	1.5	–	–
Cc1cc(C)c(CNC(=O)c2cc(-c3ccc(N4CCN(CCNC(=O)C56CC7CC(C)(CC(C)(C7)C5)C6)CC4)nc3)cc3c2cnn3C(C)C)c(=O)[nH]1 [AM29-22A, N-((4,6-dimethyl-2-oxo-1,2-dihydropyridin-3-yl)methyl)-6-(6-(4-(2-((1R,3S)-3,5-dimethyladamantane-1-carboxamido)ethyl)piperazin-1-yl)pyridin-3-yl)-1-isopropyl-1H-indazole-4-carboxamide]	–	0.69	0.87
Cc1cc(C)c(CNC(=O)c2c(C)n([C@@H](C)C3CCN(CCN(CCC45CC6CC(CC(C6)C4)C5)CCC45CC6CC(CC(C6)C4)C5)CC3)c3ccccc23)c(=O)[nH]1 [XF042-93, 1-((S)-1-(1-(2-(bis(2-((3S,5S,7S)-adamantan-1-yl)ethyl)amino)ethyl)piperidin-4-yl)ethyl)-N-((4,6-dimethyl-2-oxo-1,2-dihydropyridin-3-yl)methyl)-2-methyl-1H-indole-3-carboxamide]	–	–	2.2
COc1cc(C)[nH]c(=O)c1CNC(=O)c1c(C)n([C@@H](C)C2CCN(CCN(CCC34CC5CC(CC(C5)C3)C4)CCC34CC5CC(CC(C5)C3)C4)CC2)c2ccccc12 [XF042-95, 1-((S)-1-(1-(2-(bis(2-((3S,5S,7S)-adamantan-1-yl)ethyl)amino)ethyl)piperidin-4-yl)ethyl)-N-((4-methoxy-6-methyl-2-oxo-1,2-dihydro-pyridin-3-yl)methyl)-2-methyl-1H-indole-3-carboxamide]	–	–	2.5
Cc1cc(C)c(CNC(=O)c2c(C)n([C@@H](C)C3CCN(CCNCCC45CC6CC(CC(C6)C4)C5)CC3)c3ccccc23)c(=O)[nH]1 [XF042-133, 1-((S)-1-(1-(2-((2-((3S,5S,7S)-adamantan-1-yl)ethyl)amino)ethyl)piperidin-4-yl)ethyl)-N-((4,6-dimethyl-2-oxo-1,2-dihydropyridin-3-yl)methyl)-2-methyl-1H-indole-3-carboxamide]	–	–	4.9

Continued, values first:

GI50 (HCC1187 cells) [µM]	GI50 (MCF-7 cells) [µM]	GI50 (MDA-MB-468 cells) [µM]	SMILES
2.6	–	–	CCCc1cc(C)[nH]c(=O)c1CNC(=O)c1cc(-c2ccc(N3CCN(CCNC(=O)CCC45CC6CC(CC(C6)C4)C5)CC3)nc2)cc2c1cnn2C(C)C [AM16-11A, 6-(6-(4-(2-(3-((1r,3s)-adamantan-1-yl)propanamido)ethyl)piperazin-1-yl)pyridin-3-yl)-1-isopropyl-N-((6-methyl-2-oxo-4-propyl-1,2-dihydro-pyridin-3-yl)methyl)-1H-indazole-4-carboxamide]
1.2	–	–	Cc1cc(C)c(CNC(=O)c2cc(-c3ccc(N4CCN(C(=O)[C@H](C)CCC56CC7CC(CC(C7)C5)C6)CC4)nc3)cc3c2cnn3C(C)C)c(=O)[nH]1 [AM16-97A, 6-(6-(4-((2R)-4-((1r,3S)-adamantan-1-yl)-2-methylbutanoyl)piperazin-1-yl)pyridin-3-yl)-N-((4,6-dimethyl-2-oxo-1,2-dihydropyridin-3-yl)methyl)-1-isopropyl-1H-indazole-4-carboxamide]
–	0.69	1.1	Cc1cc(C)c(CNC(=O)c2cc(-c3ccc(N4CCN(CCNC(=O)C56CC7CC(CC(C7)C5)C6)CC4)nc3)cc3c2cnn3C(C)C)c(=O)[nH]1 [AM16-101A, 6-(6-(4-(2-((1s,3s)-adamantane-1-carboxamido)ethyl)piperazin-1-yl)pyridin-3-yl)-N-((4,6-dimethyl-2-oxo-1,2-dihydropyridin-3-yl)methyl)-1-isopropyl-1H-indazole-4-carboxamide]
4.3	–	–	Cc1cc(C)c(CNC(=O)c2cc(-c3ccc(N4CCN(CCCNC(=O)[C@H](C)CCC56CC7CC(CC(C7)C5)C6)CC4)nc3)cc3c2cnn3C(C)C)c(=O)[nH]1 [AM16-106A, 6-(6-(4-(3-((R)-4-((3R,5R,7R)-adamantan-1-yl)-2-methyl-butanamido)propyl)piperazin-1-yl)pyridin-3-yl)-N-((4,6-dimethyl-2-oxo-1,2-dihydro-pyridin-3-yl)methyl)-1-isopropyl-1H-indazole-4-carboxamide]
–	0.28	0.2	Cc1cc(C)c(CNC(=O)c2cc(-c3ccc(N4CCN(CCNC(=O)CC56CC7CC(C)(CC(C)(C7)C5)C6)CC4)nc3)cc3c2cnn3C(C)C)c(=O)[nH]1 [AM29-21A, N-((4,6-dimethyl-2-oxo-1,2-dihydropyridin-3-yl)methyl)-6-(6-(4-(2-(2-((1r,3R,5S,7r)-3,5-dimethyladamantan-1-yl)acetamido)ethyl)piperazin-1-yl)pyridin-3-yl)-1-isopropyl-1H-indazole-4-carboxamide]
–	0.7	0.71	Cc1cc(C)c(CNC(=O)c2cc(-c3ccc(N4CCN(CCC(=O)NCC56CC7CC(CC(C7)C5)C6)CC4)nc3)cc3c2cnn3C(C)C)c(=O)[nH]1 [AM29-33A, 6-(6-(4-(3-((((3r,5r,7r)-adamantan-1-yl)methyl)amino)-3-oxopropyl)piperazin-1-yl)pyridin-3-yl)-N-((4,6-dimethyl-2-oxo-1,2-dihydropyridin-3-yl)methyl)-1-isopropyl-1H-indazole-4-carboxamide]
2.2	–	–	Cc1cc(C)c(CNC(=O)c2cc(-c3ccc(N4CCN(CCNC(=O)CCC56CC7CC(CC(C7)C5)C6)CC4)nc3)cc3c2cnn3C(C)C)c(=O)[nH]1 [XY019-44, 6-(6-(4-(2-(3-((3r,5r,7r)-adamantan-1-yl)propanamido)ethyl)piperazin-1-yl)pyridin-3-yl)-N-((4,6-dimethyl-2-oxo-1,2-dihydropyridin-3-yl)methyl)-1-isopropyl-1H-indazole-4-carboxamide]
–	–	2.4	CO[C@H]1C[C@@H](C)C/C(C)=C/[C@@H](CCCSCCC(=O)NCCN2CCN(c3ccc(-c4cc(C(=O)NCc5c(C)cc(C)[nH]c5=O)c5cnn(C(C)C)c5c4)cn3)CC2)C(=O)C[C@H](O)[C@@H](C)[C@@H](/C(C)=C/[C@@H]2CC[C@@H](O)[C@H](OC)C2)OC(=O)[C@@H]2CCCCN2C(=O)C(=O)[C@]2(O)O[C@H]1[C@@H](OC)C[C@H]2C [XY028-086, FK506 adduct with N-((4,6-dimethyl-2-oxo-1,2-dihydropyridin-3-yl)methyl)-1-isopropyl-6-(6-(4-(2-(3-mercaptopro-panamido)ethyl)piperazin-1-yl)pyridin-3-yl)-1H-indazole-4-carboxamide]
